# Test results as given in PMC12192077, “Leveraging Neural ODEs for Population Pharmacokinetics of Dalbavancin in Sparse Clinical Data” (Entropy, 2025).
# Read-outs that look alike come from different tables or passages of the source.
# Legend:
# [1] = clinical; settings: in vivo
# Source text: The dataset used in this study was collected from a cohort of 218 patients undergoing Dalbavancin treatment and who underwent therapeutic drug monitoring (TDM) of Dalbavancin at the IRCCS, Azienda Ospedaliero Universitaria di Bologna between April 2021 and December 2024. Dalbavancin is a long-acting antibiotic used for the treatment of skin and soft tissue infections and as a second-line agent in patients with staphylococcal infections, such as bone and joint infections, vascular prosthetic joint infections and endocarditis. At our center, Dalbavancin plasma exposure is optimized by means of TDM, which is the medical practice of measuring drug concentration in plasma in order to guide drug dosing for attaining a pre-defined target of efficacy. Dalbavancin is a semisynthetic lipoglycopeptide derived from the teicoplanin-like antibiotic A-40926, which is an agent naturally produced by the actinomycete Nonomuria spp. […] The long lipophilic side chain in the Dalbavancin molecule serves a dual purpose by both extending the half-life, as well as anchoring the compound to the membrane, which enhances its antimicrobial activity.
# The data acquisition process involved recording patient covariates, drug administration details and serial blood sampling for pharmacokinetic analysis. Dalbavancin doses ranged from 350mg to 1500mg , with a total of 703 administrations recorded. Blood samples were obtained at various time points following drug administration, resulting in 669 concentration measurements. Standardized laboratory procedures were followed for quantifying Dalbavancin levels in plasma, ensuring accuracy and consistency across all samples.
# To ensure robust model evaluation, we employed a cross-validation approach. Given the dataset size and the need for a balance between the training and validation data, we opted for a 6-fold cross-validation framework. This choice provides a good trade-off between statistical reliability and computational efficiency, allowing each model to be trained and validated on multiple subsets of the data while maintaining a sufficient amount of training data per fold.
# Since the compartment models are systems of differential equations, the replacement of these equations with an NN is direct:(2a) dCc/dt=−CcCl/V1−CcQ/V1+CpQ/V2dCp/dt=CcQ/V1−CpQ/V2 (2b) dh(t)/dt=fnn(h(t),t;θ) The differential equation systems (2a) represent a simple two-compartment model with the four parameters that need to be fitted: V1 and V2 are the volumes of the central and peripheral compartments, Cl the clearance, Q the intercompartmental clearance and Cc and Cp the concentrations of the two compartments.
# In addition to the main FNN, the model includes an additional parameter, the distribution volume ( VNODE ), which is learned through gradient descent with the whole FNN. […]
# [2] = in vivo; cited from earlier work
smiles,measurement,setting,value
CN[C@H]1C(=O)N[C@@H]2Cc3ccc(cc3)Oc3cc4cc(c3O[C@@H]3O[C@H](C(=O)O)[C@@H](O)[C@H](O)[C@H]3NC(=O)CCCCCCCCC(C)C)Oc3ccc(cc3Cl)[C@@H](O)[C@@H]3NC(=O)[C@H](NC(=O)[C@@H]4NC(=O)[C@@H](NC2=O)c2cc(cc(O)c2Cl)Oc2cc1ccc2O)c1ccc(O)c(c1)-c1c(O[C@H]2O[C@H](CO)[C@@H](O)[C@H](O)[C@@H]2O)cc(O)cc1[C@@H](C(=O)NCCCN(C)C)NC3=O [Dalbavancin],clearance,"[1]; human, Cl (clearance), SD",0.9 mL/min
same,Cl (clearance),"[1]; human, SD",0.0367 ± 0.0006 L/h
same,VNODE (distribution volume),[1],5.7 ± 0.1 L
same,"VNODE,cov (distribution volume)",[1]; SD,5.2 ± 0.8 L
same,Cl (clearance),[2],0.031 ± 0.004 L/h
same,Q (intercompartmental clearance),[2],0.038 ± 0.013 L/h
same,V1 (volume of central compartment),[2],5.9 ± 0.3 L
same,V2 (volume of peripheral compartment),[2],9.6 ± 1.4 L
